Measured values as given in patent publication US20260200946A1, “KRAS(G12V) INHIBITORS” (Ranok Therapeutics (Hangzhou) Co. Ltd., priority 2022, published 2026).

Key:
SW620 cells = test: Cancer cell line proliferation (CellTiter-Glo), SW620; type: cell-based; conditions: Homo sapiens, SW-620, SW620 colorectal adenocarcinoma, homozygous G12V, 72 hr
Description: Cell lines were cultured essentially according to ATCC recommendations. SW620 and NCIH727 cells were plated in 384-well tissue culture plates at 1,000 cells/well and incubated at 37° C./5% CO2 for 72 hr in 40 μl of media. […] Each cell line was then treated with test compounds at various concentrations with a final concentration of 0.5% DMSO/well, and then incubated at 37° C./5% CO2 for 72 hr. 40 μl of CellTiter-Glo® Reagent (Promega Corporation, Madison, WI) was added to each well and processed according manufacturer's protocol. Results were analyzed and IC50 values were calculated in GraphPad 8.0 software.

NCIH727 cells = test: Cancer cell line proliferation (CellTiter-Glo), NCI-H727; type: cell-based; conditions: Homo sapiens, 72 h, NCIH727 lung carcinoid, heterozygous G12V
Outline: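 NCI-H727 cells (1,000/well) were grown 72 h at 37 °C/5% CO2, then exposed to compound at various concentrations (0.5% DMSO final) for a further 72 h. Viability was read by CellTiter-Glo luminescence, and IC50 values were calculated from the dose-response.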

KRAS(G12V)/SOS1 = target: T1, KRAS(G12V)/SOS1 (Homo sapiens, UniProt P01116, G12V); test: KRAS(G12V)/SOS1 homogeneous time-resolved fluorescence (HTRF) assay; type: binding; conditions: absence of GTP; 4° C., 3 hours; read-out: HTRF of KRASG12V-SOS1
T1 construct: purchased Cisbio 63ADK000CB18PEH
T1 sequence (P01116 1-188 isoform P01116-2 G12V): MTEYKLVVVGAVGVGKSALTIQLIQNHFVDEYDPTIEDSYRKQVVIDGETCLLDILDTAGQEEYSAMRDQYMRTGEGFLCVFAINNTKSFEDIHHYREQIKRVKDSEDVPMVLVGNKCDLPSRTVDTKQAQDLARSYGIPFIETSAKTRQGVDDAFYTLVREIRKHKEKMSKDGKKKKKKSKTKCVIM
Description: Binding of test compounds to KRAS(G12V) target protein, which in turn blocks KRAS(G12V) interaction with the SOS1 protein, was measured in the absences of GTP by homogeneous time-resolved fluorescence using the KRAS-G12V/SOS1 Binding Assay Kit (Cisbio, 63ADK000CB18PEH), following the manufacturer's instructions, except as noted. 3-fold serial dilutions of each test compound were prepared ranging from 20 µM to 1.02 nM. The test compound was mixed and incubated with reaction components, incubated in a sealed plate at 4° C. for 3 hours and fluorescence was measured using a PerkinElmer Envision plate reader. The KRAS(G12V)-SOS1 IC50 values (the concentration of 50% of the maximal inhibition) were calculated using GraphPad Prism 8.0 software.

SMILES	EC50 (SW620 cells) [µM]	EC50 (NCIH727 cells) [µM]	IC50 (KRAS(G12V)/SOS1) [µM]
C#Cc1c(F)ccc2cc(O)cc(-c3ncc4c(N5CC6CCC(C5)N6C(=O)CC#N)nc(OCC5(CN6CCC(F)CC6)CC5)nc4c3F)c12 [Example 2]	0.1 to 1	0.1 to 1	< 0.1
C#Cc1c(F)ccc2cc(O)cc(-c3ncc4c(N5CC6CCC(C5)N6C(=O)CCC#N)nc(OCC5(CN6CCC(F)CC6)CC5)nc4c3F)c12 [Example 3]	0.1 to 1	> 1	< 0.1
C#Cc1c(F)ccc2cc(O)cc(-c3ncc4c(N5CC6CCC(C5)N6C(=O)CC(C)(C)C)nc(OCC5(CN6CCC(F)CC6)CC5)nc4c3F)c12 [Example 5]	> 1	> 1	0.1 to 1
C#Cc1c(F)ccc2cc(O)cc(-c3ncc4c(N5CC6CCC(C5)N6C(=O)NC(C)(C)C)nc(OCC5(CN6CCC(F)CC6)CC5)nc4c3F)c12 [Example 6]	0.1 to 1	0.1 to 1	< 0.1
C#Cc1c(F)ccc2cc(O)cc(-c3ncc4c(N5CC6CCC(C5)N6C(=O)NC(C)C)nc(OCC5(CN6CCC(F)CC6)CC5)nc4c3F)c12 [Example 7]	> 1	> 1	< 0.1
C#Cc1c(F)ccc2cc(O)cc(-c3ncc4c(N5CC6CCC(C5)N6C(=O)N(C)C)nc(OCC5(CN6CCC(F)CC6)CC5)nc4c3F)c12 [Example 8]	> 1	> 1	< 0.1
C#Cc1c(F)ccc2cc(O)cc(-c3ncc4c(N5CC6CCC(C5)N6C(=O)OCC)nc(OCC5(CN6CCC(F)CC6)CC5)nc4c3F)c12 [Example 11]	0.1 to 1	0.1 to 1	0.1 to 1
C#Cc1c(F)ccc2cc(O)cc(-c3ncc4c(N5CC6CCC(C5)N6S(=O)(=O)CC(C)C)nc(OCC5(CN6CCC(F)CC6)CC5)nc4c3F)c12 [Example 14]	0.1 to 1	> 1	0.1 to 1
C#Cc1c(F)ccc2cc(O)cc(-c3ncc4c(N5CC6CCC(C5)N6C(=O)OCC(C)C)nc(OCC5(CN6CCC(F)CC6)CC5)nc4c3F)c12 [Example 16]	> 1	> 1	0.1 to 1
C#Cc1c(F)ccc2cc(O)cc(-c3ncc4c(N5CC6CCC(C5)N6C(=O)NC(=O)C(C)(C)C)nc(OCC5(CN6CCC(F)CC6)CC5)nc4c3F)c12 [Example 17]	> 1	> 1	0.1 to 1
C#Cc1c(F)ccc2cc(O)cc(-c3ncc4c(N5CC6CCC(C5)N6C(=O)N5CCC5)nc(OCC5(CN6CCC(F)CC6)CC5)nc4c3F)c12 [Example 18]	> 1	> 1	0.1 to 1
C#Cc1c(F)ccc2cc(O)cc(-c3nc(OC)c4c(N5CC6CCC(C5)N6C(=O)NC(C)(C)C)nc(OCC5(CN6CCC(F)CC6)CC5)nc4c3F)c12 [Example 21]	0.1 to 1	0.1 to 1	< 0.1
C#Cc1c(F)ccc2cc(O)cc(-c3ncc4c(N5CC6CCC(C5)N6C(=O)C5(C(F)(F)F)CC5)nc(OCC5(CN6CCC(F)CC6)CC5)nc4c3F)c12 [Example 22]	> 1	> 1	0.1 to 1
C#Cc1c(F)ccc2cc(O)cc(-c3nc(OC)c4c(N5CC6CCC(C5)N6C(=O)NC#N)nc(OCC5(CN6CCC(F)CC6)CC5)nc4c3F)c12 [Example 23]	> 1	> 1	0.1 to 1
C#Cc1c(F)ccc2cc(O)cc(-c3ncc4c(N5CC6CCC(C5)N6C(=O)N5CC(OC)C5)nc(OCC5(CN6CCC(F)CC6)CC5)nc4c3F)c12 [Example 24]	> 1	> 1	0.1 to 1
C#Cc1c(F)ccc2cc(O)cc(-c3ncc4c(N5CC6CCC(C5)N6S(=O)(=O)NC(C)C)nc(OCC5(CN6CCC(F)CC6)CC5)nc4c3F)c12 [Example 25]	> 1	> 1	0.1 to 1
C#Cc1c(F)ccc2cc(O)cc(-c3nc(OC)c4c(N5CC6CCC(C5)N6C(=O)NCC(F)(F)F)nc(OCC5(CN6CCC(F)CC6)CC5)nc4c3F)c12 [Example 26]	> 1	0.1 to 1	< 0.1

SMILES	EC50 (SW620 cells) [µM]	EC50 (NCIH727 cells) [µM]	IC50 (KRAS(G12V)/SOS1) [µM]
C#Cc1c(F)ccc2cc(O)cc(-c3ncc4c(N5CC6CCC(C5)N6C(=O)CC5CC5)nc(OCC5(CN6CCC(F)CC6)CC5)nc4c3F)c12 [Example 27]	> 1	> 1	0.1 to 1
C#Cc1c(F)ccc2cc(O)cc(-c3ncc4c(N5CC6CCC(C5)N6C(=O)c5nnn[nH]5)nc(OCC5(CN6CCC(F)CC6)CC5)nc4c3F)c12 [Example 28]	> 1	> 1	0.1 to 1
C#Cc1c(F)ccc2cc(O)cc(-c3ncc4c(N5CC6CCC(C5)N6C(=O)NC#N)nc(OCC5(CN6CCC(F)CC6)CC5)nc4c3F)c12 [Example 29]	> 1	> 1	0.1 to 1
C#Cc1c(F)ccc2cc(O)cc(-c3ncc4c(N5CC6CCC(C5)N6C(=O)c5c[nH]cn5)nc(OCC5(CN6CCC(F)CC6)CC5)nc4c3F)c12 [Example 30]	> 1	> 1	0.1 to 1
C#Cc1c(F)ccc2cc(O)cc(-c3nc(OC)c4c(N5CC6CCC(C5)N6C(=O)NCCF)nc(OCC5(CN6CCC(F)CC6)CC5)nc4c3F)c12 [Example 62]		0.1 to 1	< 0.1
C#Cc1c(F)ccc2cc(O)cc(-c3nc(OC)c4c(N5CC6CCC(C5)N6C(=O)NC(C)(C#N)CC)nc(OCC5(CN6CCC(F)CC6)CC5)nc4c3F)c12 (stereo not drawn) [Example 64]		< 0.1	< 0.1
C#Cc1c(F)ccc2cc(O)cc(-c3nc(OC)c4c(N5CC6CCC(C5)N6C(=O)NC(C)(C)C#N)nc(OCC5(CN6CCC(F)CC6)CC5)nc4c3F)c12 [Example 65]		< 0.1	< 0.1
C#Cc1c(F)ccc2cc(O)cc(-c3nc(OC)c4c(N5CC6CCC(C5)N6C(=O)CCC#N)nc(OCC5(CN6CC7CC7C6)CC5)nc4c3F)c12 (stereo not drawn) [Example 99]	0.1 to 1	< 0.1	
C#Cc1c(F)ccc2cc(O)cc(-c3nc(OC)c4c(N5CC6CCC(C5)N6C(=O)NCC#N)nc(OCC5(CN6CC7CC7C6)CC5)nc4c3F)c12 (stereo not drawn) [Example 104]	0.1 to 1	0.1 to 1	
C#Cc1c(F)ccc2cc(O)cc(-c3nc(OC)c4c(N5CC6CCC(C5)N6C(=O)NC(C)C#N)nc(OCC5(CN6CC7CC7C6)CC5)nc4c3F)c12 (stereo not drawn) [Example 105]	0.1 to 1	< 0.1	
C#Cc1c(F)ccc2cc(O)cc(-c3nc(OC)c4c(N5CC6CCC(C5)N6C(=O)C(C#N)CC#N)nc(OCC5(CN6CC7CC7C6)CC5)nc4c3F)c12 (stereo not drawn) [Example 109]	0.1 to 1	0.1 to 1	
[2H]C([2H])([2H])Oc1nc(-c2cc(O)cc3ccc(F)c(C#C)c23)c(F)c2nc(OCC3(CN4CC5CC5C4)CC3)nc(N3CC4CCC(C3)N4C(=O)C(C)C#N)c12 (stereo not drawn) [Example 118]		0.1 to 1	< 0.1
[2H]C([2H])([2H])Oc1nc(-c2cc(O)cc3ccc(F)c(C#C)c23)c(F)c2nc(OCC3(CN4CC5CC5C4)CC3)nc(N3CC4CCC(C3)N4C(=O)C(C)(C)C#N)c12 (stereo not drawn) [Example 119]		> 1	< 0.1
C#Cc1c(F)ccc2cc(O)cc(-c3nc(OC)c4c(N5CC6CCC(C5)N6C(=O)NCC(F)(F)F)nc(OCC5(CN6CC7CC7C6)CC5)nc4c3F)c12 (stereo not drawn) [Example 129]	0.1 to 1	< 0.1	
C#Cc1c(F)ccc2cc(O)cc(-c3nc(OC)c4c(N5CC6CCC(C5)N6C(=O)CC(C)C#N)nc(OCC5(CN6CC7CC7C6)CC5)nc4c3F)c12 (stereo not drawn) [Example 140]	0.1 to 1	< 0.1	
C#Cc1c(F)ccc2cc(O)cc(-c3nc(OC)c4c(N5CC6CCC(C5)N6C(=O)CCOC(F)(F)F)nc(OCC5(CN6CC7CC7C6)CC5)nc4c3F)c12 (stereo not drawn) [Example 147]	0.1 to 1	0.1 to 1	
